Assay [1] concerns CD8+IFN-γ+ double-positive cells. The assay can be described thus: In vivo induction of CD8 T cells proliferation. Set-up: species or system HLA-A2.1 transgenic C57BL/6 mice. As for the experimental part:
4-6 week-old HLA-A2.1 transgenic C57BL/6 mice were immunized with 100 μl containing 100 μg of SEQ ID NO: 1 peptide in adjuvant at 0.2 μM of CpG phosphorethioate oligodeoxynucleotide 1826 (CpG ODN 1826) via intramuscular injection three times at one week intervals. Five days after the third immunization, the splenocytes of mice were recovered and the numbers of CD8^+IFN-γ^+ double-positive cells were measured using flow cytometry analyses.

For assay [2], the target named is T1, HLA-A2.1 antigens on T2 cell surface (Homo sapiens, UniProt P04439, D140Y/D185E/D98H/E176V/E277Q/G131W/G231S/I119V/I121R/I166T/I218V/L300P/L318F/N151K/N90K/P208A/P217A/Q86G/Q94H/R138H/R169H/T345S).
T1 construct: endogenous in cells; host or cells: T2 cells
Put plainly: T2 cell binding assay. Type of assay: cell-based. Conditions: T2 cells, 10 μg/ml synthetic peptide, 20 hours at 26° C., flow cytometry. An excerpt: The binding test of the peptide in the invention was subjected to a T2 cell binding assay to measure the binding affinity for HLA-A2.1 antigens on T2 cell surface. T2 cells lack genes coding for transporter proteins for antigenic peptides (TAP1/TAP2) and therefore is not able to translocate peptide antigens processed by cells into the endoplasmic reticulum (ER). […] Therefore, the synthetic peptide antigens were used directly, not through cell processing, for the binding test with HLA-A2.1 antigens on T2 cell surface.
T2 cells that had been incubated overnight at 26° C. in RPMI 1640 containing 5% fetal bovine serum (FBS) were mixed with 10 μg/ml of pre-prepared synthetic peptide for 20 hours at 26° C. in RPMI containing 5% FCS and 5 μg/ml human β 2-microglobulin (β 2 m). The cells were then washed twice, incubated at 37° C. for 2 hours. […] Then the cells were incubated with fluorescein isothiocyanate (FITC) labeled anti-human HLA-A2.1 antibodies (BD Biosciences Pharmingen) to stain HLA-A2.1. The stains were fixed with 1% paraformaldehyde, and analyzed by flow cytometry. Because the binding of synthetic peptides and HLA-A2.1 antigens would be presented on the surface of lymphocytes, which could be recognized and bound by anti-human HLA-A2.1 antibodies. Therefore the fluorescein indicated the binding of synthetic peptides.
(Flow cytometry measures light scatter and fluorescence of single cells or particles in a stream.)

In assay [3] the test system is β-lymphocyte (HMy2.CIR, ATCC No.: CRL-1993) target cells. Put plainly: Cytotoxicity assay (CTL activity). Type of assay: cell-based. Particulars: splenocytes of immunized mice as effector cells. As to the method: The β-lymphocyte (HMy2.CIR, ATCC No.: CRL-1993) target cells were labeled with PKH-26 and carboxyfluorescein diacetate succinimidyl ester (CFSE). 4-6 week-old HLA-A2.1 transgenic C57BL/6 mice were immunized as described in Example 2 with 100 μl of the same dosage of SEQ ID NO: 1 peptide in adjuvant of CpG oligodeoxynucleotide via intramuscular injection three times at one week intervals. Five days after the third immunization, the splenocytes of mice were recovered as effector cells and incubated with the target cells […].
Target cells labeled with two dyes were cultivated in the absence of effector cells as the control group. When membrane damage occurs, the dye is almost instantaneously lost and the cells are no longer able to take up the charged dye.

Take “SEQ ID NO: 1: synthetic 9-amino-acid peptide, 63th to 71th amino acid sequence of HPV-16 E5 protein (YIIFVYIPL; Human papillomavirus type 16)”: the “number of CD8+IFN-γ+ double-positive cells” value in assay [1] (splenocytes five days after third immunization, 100 μg peptide with CpG ODN 1826, intramuscular, three times at one week intervals) was found to be 0.32%. Besides, the “increase of CD8+IFN-γ+ double-positive cells in comparison to the irrelevant stimulator” value in assay [1] (splenocytes of immunized mice vs control group) is recorded as “about 4 fold”. Also, the “fluorescence intensity (FITC anti-human HLA-A2.1 staining)” value in assay [2] is listed as “around 22%”. Also, the values for the cytolytic activity in assay [3] (ET ratio 10) and in assay [3] (ET ratio 150) were 18% and 33%, respectively.

Turning to “positive control: HLA-A2.1 binding peptide obtained from tyrosinase peptide 369-377, positive control [reference compound]”, the “fluorescence intensity (FITC anti-human HLA-A2.1 staining)” value in assay [2] is on record as “around 35%”.

The values above are taken from US20070218080A1, “Peptide antigen of human papillomavirus type 16 and application thereof” (Mackay Memorial Hospital, priority 2006, published 2007).
